Assay results reported in BindingDB's records for doi:10.1016/s0960-894x(01)00229-3 (Peking University, 2001).

Test: Inhibitory activity against secretory Phospholipase A2 (s-PLA2) of Naja naja

| IC50 [µM] | Compound |
| --- | --- |
| 10 | COc1ccc2nc(Oc3ccccc3)cc(C(N)=O)c2c1 [6-Methoxy-2-phenoxy-quinoline-4-carboxylic acid amide] |
| 1 | COc1ccc2nc(Oc3ccccc3)cc(CC(N)=O)c2c1 [2-(6-Methoxy-2-phenoxy-quinolin-4-yl)-acetamide] |
